Data: patent publication US6365628B1 (Thia Medica AS, priority 1998, dated 2002)

Assays:
[1] = system: dogs; experiment: 28 days toxicity study in dogs (GLP), oral TTA; type: in vivo, dog
Excerpt: A 28 days toxicity study in dogs according to GLP guide-lines has been performed by Corning Hazleton (Europe), England. […] Some lipid related parameters were lowered in the animals given high dosages. This is consistent with the pharmacological activity of TTA.

[2] = system: Salmonella typhimurium; experiment: Test for mutagenic activity in Salmonella typhimurium strains; type: cell-based; details: 3-1000 mg/plate (TTA) 2-5000 mg/plate (TSA)
Excerpt: Tests for mutagenic activity have been performed by Covance Laboratories Limited, England. […] Furthermore, TTA was not mutagenic when tested in mouse lymphoma cells […] L5178Y.

[3] = system: chinese hamster ovary cells; experiment: Chromosomal aberrations in cultured chinese hamster ovary cells; type: cell-based; details: doses tested 12-140 mg/ml
[4] = system: Wistar rats; experiment: Lipid lowering effect in normal Wistar rats (Example 4); type: in vivo, rat; details: gavage once daily for 7 days, dose 150 mg/day/kg body weight
Experimental: Male Wistar rats, weighing 180-200 g at the start of the experiment, were housed individually in metal wire cages in a room maintained at 12 h light-dark cycles and a constant temperature of 20±3° C. The animals were acclimatised for one week under these conditions before the start of the experiments.
TTA, TSA and eicosapentaenoic acid (EPA) were suspended in 0.5% (w/v) carboxymethyl cellulose (CMC). Six animals were used for each treatment, and a 0.5% CMC solution was administrated to the rats as control. After administration of the test compound, the rats were fasted for 12 hours and anaesthetised with haloethan. The EPA and the fatty acid derivatives were administered by gastric intubation (gavage) once daily for 7 days. Blood samples were collected by cardiac puncture, and lipid concentrations in plasma were determined as outlined in the method section.

[5] = system: high fat diet fed Wistar Charles River rats; experiment: High fat diet with or without TTA for three weeks, adipose tissue weights (Example 5); type: in vivo, rat; details: high fat diet + 0.4% TTA for three weeks, mean ± SEM
Experimental: Male Wistar Charles River rats weighing 280-358 grams were purchased from AnLab Ltd. (Prague, Czech Republic) and housed in wire-mesh cages in a temperature (22±1° C.) and light-controlled (light from 7:00 a.m. to 7:00 p.m.) room. They were given free access to chow and water. Three rats were housed per cage. Weight gain and food intake were recorded daily.
High Fat (HF): 1.9% gelatin, 5.7% wheat bran, 7.7% vitamins and minerals, 25.4% corn starch, 25.7% casein, 26.8% beef tallow and 7.1% sunflower oil.
HF+TTA: Same+0.4% TTA dissolved in the beef tallow.
Male Wistar Charles River rats (280-360 g) were fed 3 different diets (see methods) for 3 weeks ad libitum. Afterwards, they were killed by decapitation, liver and epididymal adipose tissue pads were dissected out and weighed.
Feeding the Wistar rats the high fat diet thus increased the epididymal and retroperitoneal fad pad weight.

[6] = system: young obese Zucker (fa/fa) rats; experiment: Body weight gain, liver and adipose tissue weights in young obese Zucker rats (Example 9); type: in vivo, rat; details: 5 week-old male obese Zucker (fa/fa) rats, TTA 300/kg/day in 0.5% CMC, 11 days, means ± SD
Experimental: The obese Zucker (fa/fa) rats used in this study were bred at the U 465 INSERM animal facility from pairs originally provided by the Harriet G. Bird Laboratory (Stow, Mass., USA). Unless otherwise stated, the animals were maintained under a constant light-dark cycle (light from 7:00 a.m. to 7:00 p.m.) at 21±1° C. and were given free access to food and water. Three rats were housed per cage. Weight gains were recorded daily.
5 week-old male obese Zucker (fa/fa) rats fed with TTA, 300/kg/day suspended in 0.5% CMC. Control animals received CMC only. Following 11 days of treatment, rats were killed by cervical dislocation, liver and epididymal adipose tissue pads were dissected out and weighed. Data are means±SD of 6 animals in the control- and 6 animals in the experimental group.

[7] = system: Wistar Charles River rats; experiment: High fat diet induced hyperinsulinemia (Example 11); type: in vivo, rat; details: HF diet supplemented with TTA, 21 days, overnight fast (FIG. 3)
Experimental: (§1) Glucose (GLU, Boehringer Mannheim, Germany), free fatty acids (NEFA, C ACS-ACOD kit; Wako Chemicals, Dalton, USA) and b-hydroxybutyrate (310-A kit; Sigma Diagnostics Inc., St. Louis, USA) concentrations were measured using enzymatic methods. Insulin concentrations were determined with radioimmunoassay by (CIS bio International, Gif sur Yvette, France) using rat insulin as standard in the Zucker rats. In the Wistar Charles River rats, plasma glucose concentrations were measured with the aid of Beckman Glucose Analyzer (Fullerton, Calif., USA). Plasma insulin levels were measured using a RIA kit from Linco Research Inc. (St. Charles, Mo., USA). Phospholipids were measured by the enzymatic method of bioMérieux, Marcy-l {grave over ( )}Etoile, France, Triacylglycerol by the Technicon Method no. SA4-0324L90, USA and Cholesterol by the Technicon Method no. SA4-0305L90, USA.
Rats weighing 280-360 g were divided into 3 groups (n=6) and fed with three different diets: standard rat chow, high fat diet (HF) and HF supplemented with TTA. After 21 days on their respective diets, blood was collected after an overnight fast from the tail vein. The data are shown as mean±SEM. Results were analysed by ANOVA and different letters denote statistical significance (p<0.05).

[8] = system: 4 month old obese Zucker (fa/fa) rats; experiment: Blood insulin and glucose in 4 month old obese Zucker (fa/fa) rats (Example 13); type: in vivo, rat; details: 4 month old Zucker (fa/fa) rats, chow with 0.15% TTA, 21 days (FIG. 6)
Experimental: as §1
The rats were given a standard chow diet, either with (n=5) or without (n=6) 0.15% TTA. Following 21 days of treatment, blood was collected and the levels of insulin and glucose measured. Data are means±S.D.

[9] = system: old obese Zucker rats; experiment: Plasma free fatty acids, ketone bodies and liver HMG-CoA synthase in old obese Zucker rats (Table 7); type: in vivo, rat; details: 21 week-old male obese Zucker (fa/fa) rats, standard diet with 0.15% TTA for 15 days, means ± SD
Experimental: as §1
Freshly isolated livers from individual old Zucker rats, were homogenised in ice-cold sucrose buffer (0.25 M sucrose, 10 mM HEPES (pH 7.4) and 2 mM EDTA). Post-nuclear and mitochondrial fractions were prepared using preparative differential centrifugation according to DeDuve et al. (De Duve, C., et al., Biochem. J., 60, 604-617 1955.) Modifications, purity and yield were as described earlier (Garras, A., et al., Biochim. Biophys. Acta, 1255, 154-160 1995.). Acid soluble products were measured in post-nuclear and mitochondrial enriched fractions, using [1-^14C]-palmitoyl-CoA and [1-^14C]-palmitoyl-L-carnitine (Radiochemical Centre, Amersham, England) as substrates as described earlier (Willumsen, N., et al., J. Lipid Res., 34, 13-22 1993. Carnitine palmitoyltransferase-I and -II activities were measured in the post-nuclear and mitochondrial fractions essentially as described by Bremer (Bremer, J., Biochim. Biophys. Acta, 665, 628-631 1981.) and 3-hydroxy-3-methylglutharyl-CoA synthase was measured according to Clinkenbeard et al. (Clinkenbeard, K. D., et al., J. Biol. Chem, 250, 3108-3116 1975.) in the mitochondrial fractions.
Data are means±SD of six animals in both the control- and the experimental group. Free fatty acids (FFA) and ketone bodies ([…]) were measured in plasma and 3-hydroxy-3-methylglutaryl (HMG) -CoA synthase activities were measured in mitochondrial fractions prepared from the liver from 21 week-old male obese Zucker (fa/fa) rats given either a standard diet (control) or a standard diet enriched with 0.15% TTA for 15 days.

Tetradecylthioacetic acid [TTA]
Effect on body weight ([1]; 500 mg/kg/day): body weight loss
Evidence of toxicity ([1]; dose levels of 50 or 500 mg/day/kg): no evidence of toxicity
Tolerability of oral administration ([1]; dose levels up to 500 mg/kg/day): generally well tolerated
Induction of mutations in strains of Salmonella typhimurium [2]: did not induce mutations
Chromosomal aberrations in cultured chinese hamster ovary cells [3]: no aberrations were induced
Plasma lipids (% reduction of control) cholesterol [4]: 30 % reduction of control
Plasma lipids (% reduction of control) triglycerides [4]: 45 % reduction of control
Epididymal adipose tissue [5]: 3.1 ± 0.2 g
Epididymal adipose tissue/body weight (%) [5]: 1.0 ± 0.1%
Retroperitoneal adipose tissue [5]: 2.7 ± 0.2 g
Retroperitoneal adipose tissue/body weight (%) [5]: 0.8 ± 0.05%
Body weight gain [6]: 6.23 ± 0.28 g/day
Epididymal adipose tissue/body weight (%) [6]: 0.78 ± 0.02%
High fat diet-induced hyperinsulinemia [7]: prevents high fat diet-induced hyperinsulinemia
Blood glucose concentration [8]: reduces
Blood insulin concentration [8]: reduces
HMG-CoA synthase activity (nmol/min/mg protein) ([9]; liver mitochondrial fractions): 27 ± 6 nmol/min/mg protein
4-OH butyrate ([9]; plasma): 3.44 ± 1.37 mmol/L
FFA (mEq/L) ([9]; plasma): 0.53 ± 0.21 mEq/L
FFA/ketone ratio ([9]; plasma): 0.17 ± 0.09
